The test system of assay [1] is neurons of corpus striatum. Put plainly: Change in intracellular cAMP in primary cultured neurons of corpus striatum. Type of assay: cell-based, Wistar rat. Here is the method: (1) Primary culture of neurons of corpus striatum Female Wistar rats on day 14 or day 15 of pregnancy were purchased from Japan SLC, Co. Ltd., and fetuses were taken out on day 18 of pregnancy. From the fetus, the brain was excised, and stored on ice-cold Leibovitz's L-15 medium (available from GIBCO) or on DMEM/F-12 medium (available from GIBCO). In the same medium, dura matter was removed and corpus striatum was collected. This striatum part was treated by trypsin to diffuse neurons, and the neurons were diluted and diffused in DMEM medium containing 10% bovine fetal serum. These neurons were inoculated in 48-well plate coated with 0.01% poly-L-lysine (available from Sigma) (2×10^5 cells/well) and cultured. On the next day, the medium was changed to Neurobasal medium (available from GIBCO), containing 50 fold-diluted B-27 supplement (available from GIBCO), and then, half of the medium was replaced on day 4, 7 and 9 of culture, to continue culture.
As in the above (1), neurons were cultured, and on day 10 of culture, the medium was removed, and then, a test compound (PDE10 inhibitors, etc.) diluted with Hank's balanced salt solution were added, and incubated at 37° C. for 15 minutes. Following that, forskolin (final concentration of 1 μM) or dopamine (final concentration of 100 nM) or D1 agonist (SKF82958 Sigma) (final concentration of 3 nM, 10 nM, 30 nM) was added thereto, and further incubated at 37° C. for 15 minutes.
Intracellular cAMP was measured using cAMP EIA kit available from Amersham Biosciences. Accordingly, after removing the reaction mixture, lysis buffer 1B (attached to cAMP EIA kit) was added to stop the reaction, and to lead cytolysis, and intracellular cAMPs were extracted. An amount of cAMPs in the extract was measured according to a protocol attached to the cAMP EIA kit.

The target in the next assay is T1, PDE7 (PDE7A) (Homo sapiens, UniProt Q13946).
T1 construct: His tag (hexahistidine, pcDNA4/HisMax) (N); made in house
T1 sequence (Q13946 1-456 isoform Q13946-2): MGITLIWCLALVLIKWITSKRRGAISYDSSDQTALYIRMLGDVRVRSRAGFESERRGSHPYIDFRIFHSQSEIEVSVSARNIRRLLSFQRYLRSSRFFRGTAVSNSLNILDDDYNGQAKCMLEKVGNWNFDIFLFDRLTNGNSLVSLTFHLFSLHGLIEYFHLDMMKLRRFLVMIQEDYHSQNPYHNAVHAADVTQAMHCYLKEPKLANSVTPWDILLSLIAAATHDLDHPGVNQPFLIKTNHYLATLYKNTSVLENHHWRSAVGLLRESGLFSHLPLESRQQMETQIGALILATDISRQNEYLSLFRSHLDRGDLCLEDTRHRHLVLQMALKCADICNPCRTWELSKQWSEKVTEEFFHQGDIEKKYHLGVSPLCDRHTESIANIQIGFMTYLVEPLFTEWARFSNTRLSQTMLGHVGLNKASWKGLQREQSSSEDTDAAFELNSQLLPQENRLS
Description: PDE assay, recombinant human PDE7A. Type of assay: biochemical. The conditions noted are these: substrate about 4.8 nM [3H]-cAMP and 0.1 μM cAMP. From the text: Based on the information of cDNA sequence of human PDE7A (Genbank/EMBL Accession No. NM002603), a cDNA encoding human PDE7A was cloned by PCR method, according to a method described in Sasaki et al. (Sasaki et al., Biochem. Biophys. Res. Commun., vol. 271, pp. 575-583, 2000). Further, based on the information of cDNA sequence of human PDE8A (Genbank/EMBL Accession No. AF388183), a cDNA encoding human PDE8A was cloned by PCR method, according to a method described in Gamanuma et al. (Gamanuma et al., Cell Signal, 2003, vol. 15, pp. 565-574). Further, a cDNA encoding human PDE11A was obtained, according to a method reported in Yuasa et al. (Yuasa et al., J. Biol. Chem., vol. 275, pp. 31469-31479, 2000). Using these cDNAs, recombinant proteins of human PDE7A, human PDE8A, and human PDE11A were prepared as follows.
DNA fragments comprising a cDNA encoding human PDE7A, human PDE8A or human PDE11A were linked to pcDNA4/HisMax (available from Invitrogen), to give a vector plasmid for expression of human proteins, with a histidine tag peptide (hexahistidine), added to the N-terminus. COS-7 cells were transfected with these vector plasmids, and the cells were cultured in Dulbecco's modified Eagle medium containing 10% bovine fetal serum for about 24 hours. […]

Molecules are shown by their SMILES.

By IC50 is commonly meant the concentration needed to halve the response being measured. `COc1ccc(-c2cc(N3CCCC3)nc(/C=C/c3nc(-n4ccnc4)c4ccccc4n3)n2)cc1OC` [Compound A, 2-{(E)-2-[4-(1-imidazolyl)-quinazolin-2-yl]}ethenyl-4-(3,4-dimethoxy)phenyl-6-(pyrrolidin-1-yl)pyrimidine]: the “intracellular cAMP increase caused by dopamine stimulus in neuron” value in assay [1] (compound concentration 1 μM, dopamine 100 nM) was “enhanced intracellular cAMP increase caused by dopamine stimulus”. For the same compound, in assay [1] (compound concentration 10 μM, 1 μM), the “intracellular cAMP increase caused by D1 agonist (SKF82958) stimulus in neuron” value was “enhanced intracellular cAMP increase caused by D1 agonist”. Besides, the “intracellular cAMP increase caused by forskolin stimulus in neuron” value in assay [1] (compound concentration 10 μM, 1 μM, forskolin 1 μM) is given as “enhanced intracellular cAMP increase caused by forskolin stimulus”. The IC50 at PDE7 (PDE7A) was above 1000 nM.

Values taken from patent US8338420B1, “Treatment of Parkinson's disease and enhancement of dopamine signal using PDE 10 inhibitor” (Mitsubishi Tanabe Pharma Corporation, priority 2002, dated 2012).
